The values that follow come from patent US8377974B2 (Millennium Pharmaceuticals, Inc., priority 2004, dated 2013).

pIC50: −log10 of the molar value. Where only a bound is given, the exact number is not on record here.

The target of the assay is T1, human plasma protein factor Xa (Homo sapiens, UniProt P00742).
T1 construct: measure proteolytic activity of the enzyme (factor Xa); purchased Haematologic Technologies (Essex Junction, Vt.); host or cells: human plasma
T1 sequence (P00742 235-488 limits assumed): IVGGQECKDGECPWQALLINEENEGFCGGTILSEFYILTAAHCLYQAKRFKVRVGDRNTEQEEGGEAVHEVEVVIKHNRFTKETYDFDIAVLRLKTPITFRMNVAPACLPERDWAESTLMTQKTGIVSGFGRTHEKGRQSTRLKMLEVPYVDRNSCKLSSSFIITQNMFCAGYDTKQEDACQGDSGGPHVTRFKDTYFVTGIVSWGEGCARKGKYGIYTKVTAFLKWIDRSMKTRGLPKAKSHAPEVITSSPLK
T1 sequence (P00742 41-179 partner limits assumed): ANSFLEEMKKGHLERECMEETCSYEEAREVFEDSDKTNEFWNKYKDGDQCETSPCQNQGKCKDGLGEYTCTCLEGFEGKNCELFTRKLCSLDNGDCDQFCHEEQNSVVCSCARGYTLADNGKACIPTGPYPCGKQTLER
Description: Factor Xa IC50 determination: cleavage of paranitroanilide substrate S-2765 in 96-well plates. The assay is classed as biochemical. Conditions: fXa 1 nM, S-2765 100 μM, Tris buffered saline pH 7.4, room temperature. In a few lines:
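Initial rates of S-2765 (100 μM final) cleavage, read at 405 nm for 2 min, fitted with a four-parameter equation to give IC50. Enzyme: 1 nM human plasma fXa, 5 min room-temperature preincubation with inhibitor (0.01 nM–10 μM) in 20 mM Tris, 150 mM NaCl, 5 mM CaCl2, 0.1% BSA, 5% DMSO, pH 7.4; duplicates.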
`O=C(NCC1CC(c2ccc(-c3ccncc3)cc2)=NO1)c1ccc(Cl)s1` (stereo not shown) [Example 191, 5-Chloro-thiophene-2-carboxylic acid [3-(4-pyridin-4-yl-phenyl)-4,5-dihydro-isoxazol-5-ylmethyl]-amide] showed a negative-log IC50 (pIC50) of at most 6.30.
The compound `O=C(NCc1cc(-c2ccc(-c3cccnc3)cc2)no1)c1ccc(Cl)s1` [Example 192, 5-Chloro-thiophene-2-carboxylic acid [3-(4-pyridin-3-yl-phenyl)-isoxazol-5-ylmethyl]-amide] showed a pIC50 of at most 6.30.
The compound `O=C(NCc1cc(-c2ccc(-c3ccncc3)cc2)no1)c1ccc(Cl)s1` [Example 193, 5-Chloro-thiophene-2-carboxylic acid [3-(4-pyridin-4-yl-phenyl)-isoxazol-5-ylmethyl]-amide] showed a negative logarithm of the IC50 (pIC50) of at least 7.00.
For the compound `CN(C)Cc1ccccc1-c1ccc(C2=NOC(CNC(=O)c3ccc(Cl)s3)C2)cc1` (stereo not shown) [Example 194, 5-Chloro-thiophene-2-carboxylic acid [3-(2′-dimethylaminomethyl-biphenyl-4-yl)-4,5-dihydro-isoxazol-5-ylmethyl]-amide], the pIC50 is at least 7.00.
`O=C(NCC1CC(c2ccc(-c3ccccc3CN3CCCC3)cc2)=NO1)c1ccc(Cl)s1` (stereo not shown) [Example 195, 5-Chloro-thiophene-2-carboxylic acid [3-(2′-pyrrolidin-1-ylmethyl-biphenyl-4-yl)-4,5-dihydro-isoxazol-5-ylmethyl]-amide] showed a negative-log IC50 (pIC50) of at least 7.00.
The same measure for `O=C(NCC1CC(c2ccc(-c3ccccc3CN3CCCCC3)cc2)=NO1)c1ccc(Cl)s1` (stereo not shown) [Example 196, 5-Chloro-thiophene-2-carboxylic acid [3-(2′-piperidin-1-ylmethyl-biphenyl-4-yl)-4,5-dihydro-isoxazol-5-ylmethyl]-amide]: at least 7.00; for `O=C(NCC1CC(c2ccc(-c3ccccc3CN3CCOCC3)cc2)=NO1)c1ccc(Cl)s1` (stereo not shown) [Example 197, 5-Chloro-thiophene-2-carboxylic acid [3-(2′-morpholin-4-ylmethyl-biphenyl-4-yl)-4,5-dihydro-isoxazol-5-ylmethyl]-amide]: at least 7.00.
On to `COCCN(C)Cc1ccccc1-c1ccc(C2=NOC(CNC(=O)c3ccc(Cl)s3)C2)cc1` (stereo not shown) [Example 198, 5-Chloro-thiophene-2-carboxylic acid [3-(2′-{[(2-methoxy-ethyl)-methyl-amino]-methyl}-biphenyl-4-yl) 4,5-dihydro-isoxazol-5-ylmethyl]-amide], for which the negative-log IC50 (pIC50) is at least 7.00.
The same measure for `CN1CCN(Cc2ccccc2-c2ccc(C3=NOC(CNC(=O)c4ccc(Cl)s4)C3)cc2)CC1` (stereo not shown) [Example 199, 5-Chloro-thiophene-2-carboxylic acid {3-[2′-(4-methyl-piperazin-1-ylmethyl)-biphenyl-4-yl]-4,5-dihydro-isoxazol-5-ylmethyl}-amide]: at least 7.00; for `CN(C)CCN(C)Cc1ccccc1-c1ccc(C2=NOC(CNC(=O)c3ccc(Cl)s3)C2)cc1` (stereo not shown) [Example 200, 5-Chloro-thiophene-2-carboxylic acid [3-(2′-{[(2-dimethylamino-ethyl)-methyl-amino]-methyl}-biphenyl-4-yl)-4,5-dihydro-isoxazol-5-ylmethyl]-amide]: at least 7.00; for `O=C(NCC1CC(c2ccc(-c3ccccc3CN3CCCCCC3)cc2)=NO1)c1ccc(Cl)s1` (stereo not shown) [Example 201, 5-Chloro-thiophene-2-carboxylic acid [3-(2′-azepan-1-ylmethyl-biphenyl-4-yl)-4,5-dihydro-isoxazol-5-ylmethyl]-amide]: at most 6.30.
The same measure for `COc1ccc(CN(C)C)c(-c2ccc(C3=NOC(CNC(=O)c4ccc(Cl)s4)C3)cc2)c1` (stereo not shown) [Example 202, 5-Chloro-thiophene-2-carboxylic acid [3-(2′-dimethylaminomethyl-5′-methoxy-biphenyl-4-yl)-4,5-dihydro-isoxazol-5-ylmethyl]-amide]: at most 6.30.
The same measure for `COc1ccc(CN2CCCC2)c(-c2ccc(C3=NOC(CNC(=O)c4ccc(Cl)s4)C3)cc2)c1` (stereo not shown) [Example 203, 5-Chloro-thiophene-2-carboxylic acid [3-(5′-methoxy-2′-pyrrolidin-1-ylmethyl-biphenyl-4-yl)-4,5-dihydro-isoxazol-5-ylmethyl]-amide]: at least 7.00; for `CN(C)Cc1ccc(Cl)cc1-c1ccc(C2=NOC(CNC(=O)c3ccc(Cl)s3)C2)cc1` (stereo not shown) [Example 204, 5-Chloro-thiophene-2-carboxylic acid [3-(5′-chloro-2′-dimethylaminomethyl-biphenyl-4-yl)-4,5-dihydro-isoxazol-5-ylmethyl]-amide]: at least 7.00.
The compound `O=C(NCC1CC(c2ccc(-c3cc(Cl)ccc3CN3CCCC3)cc2)=NO1)c1ccc(Cl)s1` (stereo not shown) [Example 205, 5-Chloro-thiophene-2-carboxylic acid [3-(5′-chloro-2′-pyrrolidin-1-ylmethyl-biphenyl-4-yl)-4,5-dihydro-isoxazol-5-ylmethyl]-amide] showed a negative logarithm of the IC50 (pIC50) of at least 7.00.
The same measure for `COCCN(C)Cc1ccc(Cl)cc1-c1ccc(C2=NOC(CNC(=O)c3ccc(Cl)s3)C2)cc1` (stereo not shown) [Example 206, 5-Chloro-thiophene-2-carboxylic acid [3-(5′-chloro-2′-{[(2-methoxy-ethyl)-methyl-amino]-methyl}-biphenyl-4-yl)-4,5-dihydro-isoxazol-5-ylmethyl]-amide]: 6.30 to 7.00.
The same measure for `COc1ccc(-c2ccc(C3=NOC(CNC(=O)c4ccc(Cl)s4)C3)cc2)c(CO)c1` (stereo not shown) [Example 207, 5-Chloro-thiophene-2-carboxylic acid [3-(2′-hydroxymethyl-4′-methoxy-biphenyl-4-yl)-4,5-dihydro-isoxazol-5-ylmethyl]-amide]: at most 6.30.
`O=Cc1ccccc1-c1ccc(-c2cc(CNC(=O)c3ccc(Cl)s3)on2)cc1` [Example 208, 5-Chloro-thiophene-2-carboxylic acid [3-(2′-formyl-biphenyl-4-yl)-isoxazol-5-ylmethyl]-amide] gave a pIC50 of at least 7.00.
Regarding `CN(C)Cc1ccccc1-c1ccc(-c2cc(CNC(=O)c3ccc(Cl)s3)on2)cc1` [Example 209, 5-Chloro-thiophene-2-carboxylic acid [3-(2′-dimethylaminomethyl-biphenyl-4-yl)-isoxazol-5-ylmethyl]-amide], the negative logarithm of the IC50 (pIC50) is at least 7.00.
Compound `O=C(NCc1cc(-c2ccc(-c3ccccc3CN3CCCC3)cc2)no1)c1ccc(Cl)s1` [Example 210, 5-Chloro-thiophene-2-carboxylic acid [3-(2′-pyrrolidin-1-ylmethyl-biphenyl-4-yl)-isoxazol-5-ylmethyl]-amide] showed a negative-log IC50 (pIC50) of 6.30 to 7.00.
The same measure for `CN(C)Cc1cccc(-c2ccc(-c3cc(CNC(=O)c4ccc(Cl)s4)on3)cc2)c1` [Example 211, 5-Chloro-thiophene-2-carboxylic acid [3-(3′-dimethylaminomethyl-biphenyl-4-yl)-isoxazol-5-ylmethyl]-amide]: 6.30 to 7.00.
The same measure for `O=C(NCc1cc(-c2ccc(-c3cccc(CN4CCCC4)c3)cc2)no1)c1ccc(Cl)s1` [Example 212, 5-Chloro-thiophene-2-carboxylic acid [3-(3′-pyrrolidin-1-ylmethyl-biphenyl-4-yl)-isoxazol-5-ylmethyl]-amide]: at most 6.30.
The same measure for `CN(C)Cc1ccc(-c2ccc(-c3cc(CNC(=O)c4ccc(Cl)s4)on3)cc2)cc1` [Example 213, 5-Chloro-thiophene-2-carboxylic acid [3-(4′-dimethylaminomethyl-biphenyl-4-yl)-isoxazol-5-ylmethyl]-amide]: at most 6.30.
In turn, `O=C(NCc1cc(-c2ccc(-c3ccc(CN4CCCC4)cc3)cc2)no1)c1ccc(Cl)s1` [Example 214, 5-Chloro-thiophene-2-carboxylic acid [3-(4′-pyrrolidin-1-ylmethyl-biphenyl-4-yl)-isoxazol-5-ylmethyl]-amide] had a negative-log IC50 (pIC50) of at most 6.30.
As to `COc1ccc(CN(C)C)c(-c2ccc(-c3cc(CNC(=O)c4ccc(Cl)s4)on3)cc2)c1` [Example 215, 5-Chloro-thiophene-2-carboxylic acid [3-(2′-dimethylaminomethyl-5′-methoxy-biphenyl-4-yl)-isoxazol-5-ylmethyl]-amide], the negative logarithm of the IC50 (pIC50) is at most 6.30.
The same measure for `COc1ccc(CN2CCCC2)c(-c2ccc(-c3cc(CNC(=O)c4ccc(Cl)s4)on3)cc2)c1` [Example 216, 5-Chloro-thiophene-2-carboxylic acid [3-(5′-methoxy-2′-pyrrolidin-1-ylmethyl-biphenyl-4-yl)-isoxazol-5-ylmethyl]-amide]: at least 7.00; for `COc1ccc(-c2ccc(-c3cc(CNC(=O)c4ccc(Cl)s4)on3)cc2)c(CN(C)C)c1` [Example 217, 5-Chloro-thiophene-2-carboxylic acid [3-(2′-dimethylaminomethyl-4′-methoxy-biphenyl-4-yl)-isoxazol-5-ylmethyl]-amide]: at least 7.00.
The same measure for `COc1ccc(-c2ccc(-c3cc(CNC(=O)c4ccc(Cl)s4)on3)cc2)c(CN2CCCC2)c1` [Example 218, 5-Chloro-thiophene-2-carboxylic acid [3-(4′-methoxy-2′-pyrrolidin-1-ylmethyl-biphenyl-4-yl)-isoxazol-5-ylmethyl]-amide]: at least 7.00.
The same measure for `O=C(NCC1CC(c2ccc(-c3ccccn3)cc2)=NO1)c1ccc(Cl)s1` (stereo not shown) [Example 219, 5-Chloro-thiophene-2-carboxylic acid [3-(4-pyridin-2-yl-phenyl)-4,5-dihydro-isoxazol-5-ylmethyl]-amide]: at least 7.00; for `O=C(NCc1cc(-c2ccc(-c3ccccn3)cc2)no1)c1ccc(Cl)s1` [Example 220, 5-Chloro-thiophene-2-carboxylic acid [3-(4-pyridin-2-yl-phenyl)-isoxazol-5-ylmethyl]-amide]: at most 6.30.
Regarding `O=C(NCC1CC(c2ccc(NCc3ccccc3)cc2)=NO1)c1ccc(Cl)s1` (stereo not shown) [Example 221, 5-Chloro-thiophene-2-carboxylic acid [3-(4-benzylamino-phenyl)-4,5-dihydro-isoxazol-5-ylmethyl]-amide], the negative-log IC50 (pIC50) was at most 6.30.
